Test systems include HCT-116 colon; SN12C renal; UO-31 renal; NCI-H522 lung; HT29 colon; NCI-H226 lung; HCC-2998 colon; HOP-62 NSCLC; OVCAR-3 ovarian; RXF 393 renal.
Holding throughout (assay): growth of human tumour cells (NCI), 48 h

Structures are written as SMILES.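 Exposure lasted 48 hours, with cells grown in 96-well plates and compounds tested at five concentrations. Abbreviation: GI50, concentration required for 50% inhibition of growth. At the TGI there is no net growth.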

For the compound `C=C(C)[C@@H]1CC[C@]2(C)CC[C@]3(C)[C@H](CC[C@@H]4[C@@]5(C)CC[C@H](OC(=O)c6ccccc6)C(C)(C)[C@@H]5CC[C@]43C)[C@@H]12`, the TGI with HCT-116 colon, with SN12C renal, in the assay on UO-31 renal, with NCI-H522 lung, in the assay on HT29 colon and in the assay with NCI-H226 lung was > 100 µM in each case. Further, the TGI in the assay with HCC-2998 colon, in the assay with HOP-62 NSCLC and with OVCAR-3 ovarian was > 100 µM in each case.
For the compound `O=C(N/C(=C\c1ccccc1[N+](=O)[O-])c1nc2ccccc2[nH]1)c1ccccc1`, the TGI with SN12C renal, in the assay with UO-31 renal, in the assay on NCI-H522 lung, with HT29 colon, in the assay on RXF 393 renal and in the assay with HCC-2998 colon was > 100 µM in each case. Also, the TGI with OVCAR-3 ovarian was > 100 µM.
For `CN(C)CCNc1ccc2ncnc3c2c1C(=O)c1ccccc1-3`, the TGI in the assay with HCT-116 colon was determined as 1.71 µM; with SN12C renal it was 13.9 µM; with UO-31 renal, 12.9 µM; with NCI-H522 lung it was 0.982 µM; with HT29 colon, 2.98 µM; with RXF 393 renal it was 2.32 µM. Moreover, the TGI came to 3.74 µM in the assay with NCI-H226 lung, 2.92 µM in the assay with HCC-2998 colon, 3.25 µM in the assay on HOP-62 NSCLC and 10.1 µM with OVCAR-3 ovarian.
Regarding `COc1ccc(-c2cc(-c3ccccc3)n(C3OCC(OC(C)=O)C(OC(C)=O)C3OC(C)=O)c(=S)c2C#N)cc1` (configuration not stated), the TGI in the assay with HCT-116 colon, with SN12C renal, in the assay with UO-31 renal, with NCI-H522 lung, with HT29 colon and with RXF 393 renal was > 100 µM each time. Also, the TGI in the assay with NCI-H226 lung, in the assay with HCC-2998 colon, with HOP-62 NSCLC and in the assay with OVCAR-3 ovarian was > 100 µM in each case.
Turning to `CC(C)(N)CO[C@H]1C[C@H]2CC[C@@]1(C)C2(C)C`, the TGI is 29.8 µM in the assay on HCT-116 colon; > 100 µM in the assay with SN12C renal; 37.7 µM in the assay on UO-31 renal; 37.1 µM with NCI-H522 lung; 34 µM in the assay with HT29 colon; 28.2 µM in the assay with RXF 393 renal. Besides, the TGI is 49.8 µM with NCI-H226 lung, 5.23 µM in the assay with HCC-2998 colon, 44 µM with HOP-62 NSCLC and > 100 µM in the assay on OVCAR-3 ovarian.
Consider `O=C(CCCn1c(=O)c2sc3ccccc3c2n2nnc(-c3ccccc3)c12)NCCc1cnc[nH]1`, for which the GI50 was 0.341 µM in the assay with HCT-116 colon; 0.271 µM with SN12C renal; 1.06 µM in the assay on NCI-H522 lung; 1.36 µM in the assay on HT29 colon; 2.52 µM in the assay on RXF 393 renal; 18.6 µM in the assay on NCI-H226 lung. Moreover, the GI50 with HCC-2998 colon was 1.77 µM; in the assay on HOP-62 NSCLC, 2.32 µM; in the assay on OVCAR-3 ovarian, 1.52 µM. Further, the TGI was found to be 1.66 µM in the assay on HCT-116 colon; 1.87 µM with SN12C renal; 11.7 µM with NCI-H522 lung; 3.16 µM with HT29 colon; 5.02 µM in the assay with RXF 393 renal; 37.7 µM in the assay on NCI-H226 lung. Also, the TGI in the assay with HCC-2998 colon is 4.15 µM; in the assay on HOP-62 NSCLC, 5.27 µM; in the assay on OVCAR-3 ovarian, 3.18 µM.
As for `Cc1nc2ccccc2c(=O)n1-c1n[nH]c2ccccc12`, the TGI in the assay with HCT-116 colon, in the assay on SN12C renal, with UO-31 renal, in the assay with NCI-H522 lung, in the assay on HT29 colon and in the assay with RXF 393 renal was > 100 µM each time. The TGI with NCI-H226 lung, in the assay with HCC-2998 colon, with HOP-62 NSCLC and in the assay on OVCAR-3 ovarian was > 100 µM each time.
For the compound `Cc1nc(Cl)c(Cl)c(Cl)n1`, the TGI with HCT-116 colon turned out to be 0.24 µM; in the assay with SN12C renal, 1.26 µM; with UO-31 renal it was 0.208 µM; in the assay with NCI-H522 lung it was 3.88 µM; in the assay on HT29 colon it was 0.442 µM; in the assay on RXF 393 renal it was 1.85 µM. In addition, the TGI turned out to be 6.04 µM in the assay with NCI-H226 lung, 7.04 µM in the assay on HCC-2998 colon, 0.974 µM in the assay with HOP-62 NSCLC and 0.281 µM in the assay with OVCAR-3 ovarian.
On to `CN1CCN(c2ccc(-c3ccc4ncc(C#N)c(Nc5ccc(F)c(Cl)c5)c4c3)cc2)CC1`, for which the GI50 with SN12C renal is 3.04 µM; in the assay on UO-31 renal, 0.895 µM; in the assay on NCI-H522 lung it was 1.15 µM; with HT29 colon, 2.33 µM; in the assay on RXF 393 renal, 1.62 µM; in the assay with NCI-H226 lung, 10.2 µM. For the same compound, the GI50 with HCC-2998 colon was 3.26 µM; in the assay on HOP-62 NSCLC, 2.22 µM; in the assay on OVCAR-3 ovarian, 1.72 µM. In addition, the TGI in the assay on SN12C renal stood at 19.6 µM; in the assay with UO-31 renal, 6.13 µM; with NCI-H522 lung it was 4.02 µM; with HT29 colon, 8.32 µM; with RXF 393 renal it was 5.54 µM; with NCI-H226 lung, 34.3 µM. Further, the TGI was 15.8 µM in the assay on HCC-2998 colon, 7.55 µM in the assay with HOP-62 NSCLC and 6.25 µM with OVCAR-3 ovarian.
As to `CCn1nc(C)c2c1C(=O)NC(C)C(=O)N2` (configuration not stated), the TGI in the assay with HCT-116 colon, with SN12C renal, with UO-31 renal, in the assay with NCI-H522 lung, with HT29 colon and with RXF 393 renal was > 100 µM in each case. The TGI with OVCAR-3 ovarian was > 100 µM.
As for `COc1cc(-c2n/c(=C\c3c(O)[nH]c4ccc(Cl)cc34)cc3c2=Nc2ccccc2-3)cc(OC)c1OC`, the GI50 is 0.232 µM in the assay on HCT-116 colon; 0.754 µM with SN12C renal; 1.29 µM with UO-31 renal; 1.79 µM with NCI-H522 lung; 1.04 µM in the assay on HT29 colon; 1.63 µM with RXF 393 renal. Further, the GI50 in the assay with NCI-H226 lung is 3 µM; in the assay with HCC-2998 colon, 2.98 µM; in the assay with HOP-62 NSCLC it was 0.383 µM; in the assay with OVCAR-3 ovarian, 0.417 µM. In addition, the TGI in the assay with HCT-116 colon came out at 0.595 µM; with SN12C renal it was 2.36 µM; in the assay with UO-31 renal, 2.72 µM; with NCI-H522 lung it was 4.09 µM; with HT29 colon, 2.96 µM; with RXF 393 renal it was 3.33 µM. The TGI in the assay on NCI-H226 lung stood at 12 µM; in the assay on HCC-2998 colon, 11 µM; in the assay with HOP-62 NSCLC it was 0.783 µM; with OVCAR-3 ovarian, 1.53 µM.
As to `Nc1ccc2c(c1)C1=NNC(=O)CC1C2` (configuration not stated), the TGI with HCT-116 colon, in the assay on SN12C renal, in the assay on UO-31 renal, in the assay with NCI-H522 lung, in the assay with HT29 colon and in the assay on RXF 393 renal was > 100 µM throughout. Further, the TGI in the assay on NCI-H226 lung is > 100 µM; with HCC-2998 colon, > 100 µM; with HOP-62 NSCLC, > 100 µM; with OVCAR-3 ovarian, > 31.6 µM.
In the case of `CO[C@H]1[C@@H](O)[C@@H](C)O[C@@H](O[C@H]2CC[C@@]3(C)[C@H](CC[C@@H]4[C@@H]3CC[C@]3(C)[C@@H](C5=CC(=O)OC5)CC[C@]43O)C2)[C@@H]1O`, the TGI in the assay with HCT-116 colon was found to be 0.0275 µM; in the assay with UO-31 renal, 0.0108 µM; with NCI-H522 lung, 0.0194 µM; in the assay with HT29 colon, 0.0504 µM; with RXF 393 renal it was 0.00617 µM; in the assay with NCI-H226 lung, 0.135 µM. Further, the figures for the TGI with HCC-2998 colon, in the assay on HOP-62 NSCLC and in the assay with OVCAR-3 ovarian were 0.173 µM, 0.00943 µM and 0.013 µM, respectively.
With `CC1SC(c2ccccc2)N(Nc2c3ccccc3nc3ccccc23)C1=O` (configuration not stated), the TGI with HCT-116 colon is > 100 µM; in the assay on SN12C renal it was > 100 µM; in the assay with UO-31 renal, 82.3 µM; in the assay on NCI-H522 lung it was > 100 µM; with HT29 colon it was > 100 µM; in the assay on NCI-H226 lung, > 100 µM. The TGI with HCC-2998 colon, with HOP-62 NSCLC and with OVCAR-3 ovarian was > 100 µM each time.

For the origin of these results see PubChem BioAssay (NCI).
